Source: US6355799B1, “Substituted benzene compounds, process for their preparation, and herbicidal and defoliant compositions containing them” (ISK Americas Incorporated, priority 1997, dated 2002)

What was measured:
Type in all cases: in vivo
[1] = system: upland rice (Oryza sp., var. Tebonnet, RICE); assay: Post-emerge test, crop safety; conditions: post-emerge, 14 days after application, rating scale 0-100
Method in brief: (§1)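 Each test used a mechanized track sprayer delivering 187 l/ha of acetone solution at 15–1000 g ai/ha. Post-emerge foliage at 2–3 leaves was treated with added 0.25% v/v non-ionic surfactant and bottom-watered only. Injury was assessed on day 14, where 100 means total kill.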

[2] = system: field corn (Zea mays L., var. Dekalb 535, CORN); assay: Post-emerge test, crop safety; conditions: post-emerge, 14 days after application, rating scale 0-100
Method in brief: as §1

[3] = system: redroot pigweed (Amaranthus retroflexus, AMARE); assay: Pre-emerge test, greenhouse herbicide activity screening; conditions: pre-emerge, phytotoxicity rating 0-100 at 14 days after application
Method in brief: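 Sandy loam pots; pre-emerge: sown 1 d pre-spray, surface-watered after, then bottom-watered. Post-emerge: sown 8–21 d before, 2–3 leaf stage, + 0.25% v/v NIS, bottom-watered. Acetone, 187 l/ha track spray, 15–1000 g ai/ha. 0–100 injury score, day 14.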

[4] = system: barnyardgrass (Echinochloa crus-galli, ECHCG); assay: as above; conditions: pre-emerge, phytotoxicity rating 0-100 at 14 days after application
Method in brief: (§2)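 Plants grown in 10 cm pots of sandy loam mix received acetone-dissolved compounds through a moving flat-fan nozzle. Doses ranged from 15 to 1000 g ai/ha. Pre-emerge pots were seeded one day earlier, post-emerge pots 8–21 days earlier. Fourteen days on, each pot was graded 0–100 for damage.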

[5] = system: johnsongrass (Sorghum halepense, SORHA); assay: as above; conditions: pre-emerge, phytotoxicity rating 0-100 at 14 days after application
Method in brief: as §2

[6] = system: large crabgrass (Digitaria sanguinalis, DIGSA); assay: as above; conditions: pre-emerge, phytotoxicity rating 0-100 at 14 days after application
Method in brief: as §2

[7] = system: sicklepod (Cassia obtusifolia, CASOB); assay: as above; conditions: pre-emerge, phytotoxicity rating 0-100 at 14 days after application
Method in brief: as §2

[8] = system: velvetleaf (Abutilon theophrasti, ABUTH); assay: as above; conditions: pre-emerge, phytotoxicity rating 0-100 at 14 days after application
Method in brief: as §2

[9] = system: lambsquarters (Chenopodium album, CHEAL); assay: as above; conditions: pre-emerge, phytotoxicity rating 0-100 at 14 days after application
Method in brief: as §2

[10] = system: green foxtail (Setaria viridis, SETVI); assay: as above; conditions: pre-emerge, phytotoxicity rating 0-100 at 14 days after application
Method in brief: as §2

[11] = system: ivyleaf morningglory (Ipomoea hederacea, IPOHE); assay: as above; conditions: pre-emerge, phytotoxicity rating 0-100 at 14 days after application
Method in brief: as §2

[12] = system: upland rice (Oryza sp., var. Tebonnet, RICE); assay: Pre-emerge test, crop safety; conditions: crop damage, pre-emerge, phytotoxicity rating 0-100 at 14 days after application
Method in brief: (§3)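 Rating: 0–100 visual injury, 14 DAA. Application: acetone, 187 l/ha, 15–1000 g ai/ha, flat-fan track sprayer with nozzle 40–45 cm above soil or canopy. Post-emerge runs used 0.25% v/v surfactant on 2–3 leaf plants.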

[13] = system: field corn (Zea mays L., var. Dekalb 535, CORN); assay: Pre-emerge test, crop safety; conditions: crop damage, pre-emerge, phytotoxicity rating 0-100 at 14 days after application
Method in brief: as §3

[14] = system: barnyardgrass (Echinochloa crus-galli, ECHCG); assay: Post-emerge test, greenhouse herbicide activity screening; conditions: post-emerge, 14 days after application, rating scale 0-100
Method in brief: (§4)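 Visual ratings on a 0-100 scale (0 no damage, 100 all plants dead) were taken at 14 days after treatment. Rates of 15-1000 g ai/ha in acetone, 187 l/ha, were sprayed onto soil one day after planting (pre-emerge) or onto 2-3 leaf plants with 0.25% v/v surfactant (post-emerge).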

[15] = system: johnsongrass (Sorghum halepense, SORHA); assay: as above; conditions: post-emerge, 14 days after application, rating scale 0-100
Method in brief: as §4

[16] = system: large crabgrass (Digitaria sanguinalis, DIGSA); assay: as above; conditions: post-emerge, 14 days after application, rating scale 0-100
Method in brief: as §4

[17] = system: sicklepod (Cassia obtusifolia, CASOB); assay: as above; conditions: post-emerge, 14 days after application, rating scale 0-100
Method in brief: as §4

[18] = system: velvetleaf (Abutilon theophrasti, ABUTH); assay: as above; conditions: post-emerge, 14 days after application, rating scale 0-100
Method in brief: as §4

[19] = system: lambsquarters (Chenopodium album, CHEAL); assay: as above; conditions: post-emerge, 14 days after application, rating scale 0-100
Method in brief: as §4

[20] = system: green foxtail (Setaria viridis, SETVI); assay: as above; conditions: post-emerge, 14 days after application, rating scale 0-100
Method in brief: as §4

[21] = system: redroot pigweed (Amaranthus retroflexus, AMARE); assay: as above; conditions: post-emerge, 14 days after application
Method in brief: as §4

[22] = system: ivyleaf morningglory (Ipomoea hederacea, IPOHE); assay: as above; conditions: post-emerge, 14 days after application, rating scale 0-100
Method in brief: as §4

Cc1ccccc1COC(=O)Nc1c(C)c(Cl)cc(F)c1-n1c(=O)cc(C(F)(F)F)n(C)c1=O [4-56]
20: phytotoxicity rating DIGSA ([16]; 63 g ai/ha)
50: Pre-emerge Herbicidal Activity ECHCG ([4]; rate 63 g ai/ha) | Pre-emerge Herbicidal Activity SORHA ([5]; rate 63 g ai/ha) | Pre-emerge Herbicidal Activity DIGSA ([6]; rate 63 g ai/ha) | Pre-emerge Herbicidal Activity RICE ([12]; rate 63 g ai/ha) | phytotoxicity rating ECHCG ([14]; 63 g ai/ha)
95: Pre-emerge Herbicidal Activity DIGSA ([6]; rate 250 g ai/ha) | Pre-emerge Herbicidal Activity SETVI ([10]; rate 250 g ai/ha)
80: phytotoxicity rating CORN (crop damage) ([2]; 63 g ai/ha) | Pre-emerge Herbicidal Activity ECHCG ([4]; rate 250 g ai/ha) | Pre-emerge Herbicidal Activity CORN ([13]; rate 250 g ai/ha)
40: Pre-emerge Herbicidal Activity IPOHE ([11]; rate 63 g ai/ha) | phytotoxicity rating SORHA ([15]; 63 g ai/ha)
35: Pre-emerge Herbicidal Activity CORN ([13]; rate 63 g ai/ha)
70: phytotoxicity rating DIGSA ([16]; 250 g ai/ha)
65: phytotoxicity rating RICE (crop damage) ([1]; 63 g ai/ha)
85: phytotoxicity rating RICE (crop damage) ([1]; 250 g ai/ha)
100: phytotoxicity rating CORN (crop damage) ([2]; 250 g ai/ha) | Pre-emerge Herbicidal Activity AMARE ([3]; rate 63 g ai/ha) | Pre-emerge Herbicidal Activity AMARE ([3]; rate 250 g ai/ha) | Pre-emerge Herbicidal Activity CASOB ([7]; rate 250 g ai/ha) | Pre-emerge Herbicidal Activity ABUTH ([8]; rate 63 g ai/ha) | Pre-emerge Herbicidal Activity ABUTH ([8]; rate 250 g ai/ha) | Pre-emerge Herbicidal Activity CHEAL ([9]; rate 63 g ai/ha) | Pre-emerge Herbicidal Activity CHEAL ([9]; rate 250 g ai/ha) | Pre-emerge Herbicidal Activity IPOHE ([11]; rate 250 g ai/ha) | phytotoxicity rating CASOB ([17]; 63 g ai/ha) | phytotoxicity rating CASOB ([17]; 250 g ai/ha) | phytotoxicity rating ABUTH ([18]; 63 g ai/ha) | phytotoxicity rating ABUTH ([18]; 250 g ai/ha) | phytotoxicity rating CHEAL ([19]; 63 g ai/ha) | phytotoxicity rating CHEAL ([19]; 250 g ai/ha) | phytotoxicity rating SETVI ([20]; 250 g ai/ha) | phytotoxicity rating AMARE ([21]; 63 g ai/ha, rating scale 0-100 (0 no damage, 100 complete death)) | phytotoxicity rating AMARE ([21]; 250 g ai/ha, rating scale 0-100) | phytotoxicity rating IPOHE ([22]; 63 g ai/ha) | phytotoxicity rating IPOHE ([22]; 250 g ai/ha)
10: Pre-emerge Herbicidal Activity CASOB ([7]; rate 63 g ai/ha)
90: Pre-emerge Herbicidal Activity SORHA ([5]; rate 250 g ai/ha) | Pre-emerge Herbicidal Activity SETVI ([10]; rate 63 g ai/ha) | Pre-emerge Herbicidal Activity RICE ([12]; rate 250 g ai/ha) | phytotoxicity rating ECHCG ([14]; 250 g ai/ha) | phytotoxicity rating SORHA ([15]; 250 g ai/ha) | phytotoxicity rating SETVI ([20]; 63 g ai/ha)
